Converted amounts (≈) assume the structure as drawn.
Assays:
NDM-1 = NDM-1 (Klebsiella pneumoniae, UniProt C7C422); test: NDM-1 inhibition, nitrocefin hydrolysis assay; format: biochemical
E. cloacae 5981 (NDM-1) = test: MIC of imipenem in combination with inhibitor; format: cell-based; conditions: for reduction of imipenem MIC: compound at 128 μg/mL, NDM-1 producing E. cloacae
E. coli 5980 (NDM-1) = test: MIC of imipenem in combination with inhibitor; format: cell-based; conditions: for reduction of imipenem MIC: compound at 128 μg/mL, NDM-1 producing E. coli
[1] = tested on: Gram-negative pathogens (all strains); test: Antibacterial activity of inhibitors alone; format: cell-based; conditions: for antibacterial effects by itself, without imipenem: 128 μg/mL; for MIC: read-out: MIC of compound tested alone
[2] = tested on: K. pneumoniae 5979 (NDM-1); test: MIC of imipenem in combination with inhibitor; format: cell-based; conditions: for reduction of imipenem MIC: compound at 128 μg/mL, NDM-1 producing K. pneumoniae
[3] = tested on: P. aeruginosa 4698 (VIM-2); test: MIC of imipenem in combination with inhibitor; format: cell-based
[4] = Kinetic solubility in pH 7.4 PBS; format: physicochemical
KPC-2 = KPC-2 (Klebsiella pneumoniae, UniProt Q9F663); format: biochemical
KPC-2, sequence (Q9F663 25-293, looked up): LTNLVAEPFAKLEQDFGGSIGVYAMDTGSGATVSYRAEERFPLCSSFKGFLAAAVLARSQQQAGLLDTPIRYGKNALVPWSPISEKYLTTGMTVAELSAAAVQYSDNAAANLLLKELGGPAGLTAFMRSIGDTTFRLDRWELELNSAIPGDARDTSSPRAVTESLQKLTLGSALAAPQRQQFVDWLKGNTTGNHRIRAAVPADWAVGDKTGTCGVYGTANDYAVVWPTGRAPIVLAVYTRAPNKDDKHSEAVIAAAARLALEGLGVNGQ

[5] = tested on: P. aeruginosa 4129 (NDM-1), lacking efflux pumps; test: Checkerboard assay, imipenem plus inhibitor; format: cell-based
VIM-2 = VIM-2 (Pseudomonas aeruginosa, UniProt Q9K2N0); test: VIM-2 inhibition, nitrocefin hydrolysis assay; format: biochemical; conditions: VIM-2 versus NDM-1
[6] = tested on: P. aeruginosa(eflx+) 4177 (NDM-1); test: Checkerboard assay, imipenem plus inhibitor; format: cell-based
[7] = tested on: P. aeruginosa 4882 (VIM-2), lacking efflux pumps; test: Checkerboard assay, imipenem plus inhibitor; format: cell-based
[8] = tested on: K. pneumoniae C2 (KPC-2), clinical strain; test: Checkerboard assay, imipenem plus inhibitor; format: cell-based
[9] = tested on: P. aeruginosa 4173 (vector); test: MIC of imipenem, vector control strain; format: cell-based; conditions: Pseudomonas aeruginosa, read-out: MIC of imipenem
[10] = tested on: K. pneumoniae 4683 (KPC-2); test: MIC of imipenem in combination with inhibitor; format: cell-based; conditions: Klebsiella pneumoniae, read-out: MIC of imipenem
[11] = tested on: P. aeruginosa(eflx+) 4175 (vector); test: MIC of imipenem, vector control strain; format: cell-based; conditions: Pseudomonas aeruginosa, read-out: MIC of imipenem
[12] = tested on: P. aeruginosa 4135 (KPC-2), lacking efflux pumps; test: Checkerboard assay, imipenem plus inhibitor; format: cell-based; conditions: Pseudomonas aeruginosa, read-out: MIC of imipenem
[13] = tested on: P. aeruginosa(eflx+) 4402 (VIM-2); test: Checkerboard assay, imipenem plus inhibitor; format: cell-based; conditions: Pseudomonas aeruginosa, read-out: MIC of imipenem
[14] = Pseudomonas aeruginosa, read-out: MIC of imipenem
[15] = Klebsiella pneumoniae, read-out: MIC of imipenem

NDM-1, sequence (C7C422 29-270, looked up): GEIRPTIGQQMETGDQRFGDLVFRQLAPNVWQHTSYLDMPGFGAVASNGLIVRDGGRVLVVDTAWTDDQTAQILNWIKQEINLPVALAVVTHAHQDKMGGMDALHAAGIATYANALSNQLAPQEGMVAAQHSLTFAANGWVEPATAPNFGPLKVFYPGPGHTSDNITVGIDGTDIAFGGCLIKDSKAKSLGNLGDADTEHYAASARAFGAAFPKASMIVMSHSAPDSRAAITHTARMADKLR

Compound: O=c1cc(CP(=O)(O)O)c2c(F)cc(F)cc2o1 [Compound 8, [(5,7-difluoro-2-oxo-2H-chromen-4-yl)methyl]phosphonic acid]
- Ki (NDM-1) (NDM-1; nitrocefin substrate, 37 °C, pH 7.2, 50 μM zinc sulfate): did not show inhibition
- NDM-1 inhibition after pre-incubation of the compound with NDM-1 (NDM-1; pre-incubation, data not shown): weak inhibitory activity

Compound: Cc1cc(Br)c2c(CP(=O)(O)O)cc(=O)oc2c1 [Compound 9, [(5-bromo-7-methyl-2-oxo-2H-chromen-4-yl)methyl]phosphonic acid]
- reduction of imipenem MIC (E. cloacae 5981 (NDM-1)): did not have any activity
- reduction of imipenem MIC (E. coli 5980 (NDM-1)): 4 fold
- antibacterial effects by itself, without imipenem [1]: neither 9 nor 16 showed any antibacterial effects
- MIC [1]: > 128 µg/mL
- reduction of imipenem MIC [2]: more than 2 fold

Compound: O=c1cc(CP(=O)(O)O)c2ccccc2[nH]1 [Compound 11, [(2-oxo-1,2-dihydroquinolin-4-yl)methyl]phosphonic acid]
- reduction of imipenem MIC (E. cloacae 5981 (NDM-1)): little if any effect
- reduction of imipenem MIC (E. coli 5980 (NDM-1)): little if any effect
- MIC [1]: > 128 µg/mL
- MIC of imipenem in the presence of compound ([3]; compound at 128 μg/mL): >64 µg/mL
- reduction of imipenem MIC [2]: little if any effect

Compound: Cc1cc(C)c2c(CP(=O)(O)O)cc(=O)[nH]c2c1 [Compound 13, [(5,7-dimethyl-2-oxo-1,2-dihydroquinolin-4-yl)methyl]phosphonic acid]
- solubility kinetic [4]: 51.6 µg/mL (≈ 193 µM)
- reduction of imipenem MIC (E. cloacae 5981 (NDM-1)): unable to rescue imipenem activity
- reduction of imipenem MIC (E. coli 5980 (NDM-1)): 4 fold
- MIC [1]: > 128 µg/mL
- MIC of imipenem in the presence of compound ([3]; compound at 128 μg/mL): >64 µg/mL
- reduction of imipenem MIC ([3]; compound at 128 μg/mL, VIM-2 producing P. aeruginosa): unable to rescue imipenem activity
- reduction of imipenem MIC [2]: unable to rescue imipenem activity

Compound: O=P(O)(O)Cc1ccnc2ccccc12 [Compound 15, [(quinolin-4-yl)methyl]phosphonic acid]
- potencies and ligand efficiencies inferior to DHQ comparator 11 (KPC-2) (KPC-2; relative to compound 11): 2–5 times

Compound: O=c1cc(CP(=O)(O)O)c2c(Br)cc(Br)cc2[nH]1 [Compound 16, [(5,7-dibromo-2-oxo-1,2-dihydroquinolin-4-yl)methyl]phosphonic acid]
- solubility kinetic [4]: 95.9 µg/mL (≈ 242 µM)
- reduction of imipenem MIC ([5]; 16 at 128 μg/mL): 16 fold
- higher affinity for VIM-2 than NDM-1 (VIM-2): ~ 100 x
- increase in activity on replacing C7-Me in 9 by -Br (KPC-2) (KPC-2; relative to compound 9): ~ 12 fold
- activity improved over the parent DHQ analog 11 (KPC-2) (KPC-2; relative to compound 11): ~ 7,000 fold
- antibacterial effects by itself, without imipenem [1]: neither 9 nor 16 showed any antibacterial effects
- decrease in potency by overexpressing efflux pumps, against NDM-1 ([6]; eflx+ versus efflux-deleted strain): up to 4 fold
- reduction of imipenem MIC ([7]; 16 at 128 μg/mL, maximum observable): 16 fold
- MIC of imipenem in the presence of 16 ([8]; 16 at 16 μg/mL): 16 µg/mL

Compound: C[C@@H](O)[C@H]1C(=O)N2C(C(=O)O)=C(SCCN=CN)C[C@H]12 [Imipenem, imipenem, reference compound]
- MIC (E. cloacae 5981 (NDM-1); Enterobacter cloacae, read-out: MIC of imipenem): 2 µg/mL
- MIC [5, 14]: 128 µg/mL
- MIC (E. coli 5980 (NDM-1); Escherichia coli, read-out: MIC of imipenem): 8 µg/mL
- MIC [9]: 2 µg/mL
- MIC [6, 14]: 128 µg/mL
- MIC [10]: 64 µg/mL
- MIC [7, 14]: 32 µg/mL
- MIC [8, 15]: 512 µg/mL
- MIC [11]: 2 µg/mL
- MIC [3, 14]: > 64 µg/mL
- MIC [12]: 64 µg/mL
- MIC [13]: 32 µg/mL
- MIC [2, 15]: > 64 µg/mL

Compound: NC(=O)[C@@H]1CC[C@@H]2CN1C(=O)N2OS(=O)(=O)O [avibactam]
- MIC of imipenem in the presence of avibactam ([8]; avibactam at 16 μg/mL): 1 µg/mL
- reduction of imipenem MIC ([8]; inhibitor at 16 μg/mL): 512 fold
